According to article PMC9352478, “Cephalosporin as Potent Urease and Tyrosinase Inhibitor: Exploration through Enzyme Inhibition, Kinetic Mechanism, and Molecular Docking Studies” (BioMed Research International, 2022):
“Also recorded” adds a separate entry of the source. Like-named read-outs stand apart in the source and are kept apart here.

What was measured:
[1] = target: T1, jack bean urease (Canavalia ensiformis, UniProt P07374); assay: biochemical
T1 construct: purchased Sigma
Protocol: To evaluate the urease enzyme activity, assay described by Weatherburn 1967 was performed. In 96-well plate, 10 μl of enzyme (jack bean urease, 5 U/ml), 40 μl buffer (100 mM urea, 0.01 M K2HPO4, 1 mM EDTA, and 0.01 M […], pH 8.2), and 20 μl of test drug were loaded. Following 15 min incubation at 37°C, 40 μl of alkali reagent (0.5%, w/v NaOH and 0.1% active chloride NaOCl) and 40 μl of phenol reagents (1%, w/v phenol and 0.005%, w/v sodium nitroprusside) were added.

[2] = target: T2, urease (Canavalia ensiformis, UniProt P07374); assay: Urease enzyme kinetics and inhibition mechanism (Lineweaver-Burk, Dixon, enzyme activity vs enzyme concentration plots); format: biochemical, jack bean; conditions: for Mode of urease inhibition: Lineweaver-Burk plot; for Reversible or irreversible urease inhibition: enzyme activity vs enzyme concentration 0.44-14 μg/ml; for ESI dissociation constant (Ki'), urease: secondary replot of Lineweaver-Burk intercept, substrate urea
T2 construct: purchased Sigma
Protocol: (§1) To this end, the Lineweaver-Burk plots of 1/absorbance versus 1/urea and 1/absorbance versus 1/L-DOPA were plotted. In all kinetic studies, drug concentrations (as indicated in Lineweaver-Burk plot) and respective substrates, urea in buffer (0.063 to 2 mM) for urease and L-DOPA (0.06 to 2 mM) for tyrosinase, were added and plates were incubated for 10 min at 37°C. Later, respective enzymes were added in plates and absorbance (wavelengths same as above) was monitored for 5 min with 1 min interval. The Lineweaver-Burk plot showing type of enzyme inhibition was plotted as inverse of velocities (1/V) versus inverse of substrate concentration 1/[S] Mm^−1. Later, inhibition constant (Ki) was evaluated by both the Dixon plot and from Lineweaver-Burk plot, by secondary replot of slope versus concentrations of inhibitor.
(§2) To this end, a plot among remaining enzyme activity versus various concentrations of respective enzymes in the presence of drug concentrations (as indicated in graph) was devised as determinant of reversible or irreversible behaviour of enzyme inhibition.

[3] = target: T3, mushroom tyrosinase (Agaricus bisporus, UniProt C7FF04); assay: Tyrosinase enzyme kinetics and inhibition mechanism (Lineweaver-Burk, Dixon, diphenolase activity plots); format: biochemical; conditions: for Mode of tyrosinase inhibition: Lineweaver-Burk plot, oxidation of L-DOPA; for Reversible or irreversible tyrosinase inhibition: diphenolase activity, enzyme activity vs enzyme concentration 0.44-14 μg/ml; for ESI dissociation constant (Ki'), tyrosinase: secondary replot of Lineweaver-Burk intercept; for ESI dissociation constant (Ki'), tyrosinase / Ki: substrate L-DOPA; for Ki: secondary replot of Lineweaver-Burk slope, read-out: EI dissociation constant (Ki), tyrosinase
T3 construct: purchased Sigma
Protocol: as §1, §2

T3 sequence (C7FF04 1-392 limits assumed): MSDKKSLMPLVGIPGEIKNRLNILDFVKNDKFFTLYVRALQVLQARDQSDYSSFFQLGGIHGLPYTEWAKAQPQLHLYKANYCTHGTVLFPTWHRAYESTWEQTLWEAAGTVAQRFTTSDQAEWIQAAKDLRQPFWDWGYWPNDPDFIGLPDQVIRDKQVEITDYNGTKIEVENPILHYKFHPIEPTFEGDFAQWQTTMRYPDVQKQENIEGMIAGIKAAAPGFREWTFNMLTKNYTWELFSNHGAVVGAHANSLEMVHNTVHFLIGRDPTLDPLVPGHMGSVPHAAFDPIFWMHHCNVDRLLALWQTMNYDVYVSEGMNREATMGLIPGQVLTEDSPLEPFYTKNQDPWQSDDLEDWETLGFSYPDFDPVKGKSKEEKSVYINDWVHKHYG
T1 sequence (P07374 whole entry, looked up): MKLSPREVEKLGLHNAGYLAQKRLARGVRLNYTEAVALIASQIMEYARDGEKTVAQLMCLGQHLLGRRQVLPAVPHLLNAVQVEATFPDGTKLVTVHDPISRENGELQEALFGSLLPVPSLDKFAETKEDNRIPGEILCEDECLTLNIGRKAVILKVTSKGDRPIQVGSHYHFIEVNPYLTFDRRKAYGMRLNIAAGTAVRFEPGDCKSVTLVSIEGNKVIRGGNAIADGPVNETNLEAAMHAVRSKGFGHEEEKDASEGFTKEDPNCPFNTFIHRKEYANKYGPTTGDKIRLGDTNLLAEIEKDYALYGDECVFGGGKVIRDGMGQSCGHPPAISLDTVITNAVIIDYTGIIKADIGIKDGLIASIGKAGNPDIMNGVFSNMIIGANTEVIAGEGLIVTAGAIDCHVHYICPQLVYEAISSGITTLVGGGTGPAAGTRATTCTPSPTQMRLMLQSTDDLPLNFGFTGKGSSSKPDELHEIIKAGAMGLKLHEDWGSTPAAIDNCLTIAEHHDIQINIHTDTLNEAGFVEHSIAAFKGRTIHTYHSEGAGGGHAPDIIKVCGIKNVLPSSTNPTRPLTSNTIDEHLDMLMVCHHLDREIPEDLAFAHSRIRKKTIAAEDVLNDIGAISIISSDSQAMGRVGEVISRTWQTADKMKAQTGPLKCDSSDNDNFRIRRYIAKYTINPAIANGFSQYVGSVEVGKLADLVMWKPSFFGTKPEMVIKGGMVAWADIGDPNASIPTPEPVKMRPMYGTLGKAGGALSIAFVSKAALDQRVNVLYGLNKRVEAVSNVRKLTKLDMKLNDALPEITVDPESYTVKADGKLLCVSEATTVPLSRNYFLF
T2 sequence (P07374 whole entry, looked up): as above

In the case of `N[C@@H](C(=O)N[C@@H]1C(=O)N2C(C(=O)O)=C(Cl)CS[C@H]12)c1ccccc1` [Cefaclor], the IC50 [1] is reported as 170 ± 16 µM.

`CC1=C(C(=O)O)N2C(=O)[C@@H](NC(=O)[C@H](N)c3ccc(O)cc3)[C@H]2SC1` [Cefadroxil] was tested, and the IC50 [1] was 220 ± 6 µM.

Molecule `CO/N=C(\C(=O)N[C@@H]1C(=O)N2C(C(=O)[O-])=C(C[N+]3(C)CCCC3)CS[C@H]12)c1csc(N)n1` [Cefepime] has an IC50 [1] of 190 ± 37 µM.

For `C=CC1=C(C(=O)O)N2C(=O)[C@@H](NC(=O)/C(=N\OCC(=O)O)c3csc(N)n3)[C@H]2SC1` [Cefixime trihydrate], the IC50 [1] was 180 ± 14 µM.

In the case of `CO/N=C(\C(=O)N[C@@H]1C(=O)N2C(C(=O)O)=C(COC(C)=O)CS[C@H]12)c1csc(N)n1` [Cefotaxime sodium], the Ki [2] is reported as 120 µM, the “Mode of urease inhibition” value [2] is reported as “competitive” and the “Reversible or irreversible urease inhibition” value [2] is reported as “irreversibly”. The “ESI dissociation constant (Ki'), urease” value [2] was 30 mM, the IC50 [1] was 60 ± 4 µM and the “Mode of tyrosinase inhibition” value [3] was “mixed-type, preferentially competitive”. The “Reversible or irreversible tyrosinase inhibition” value [3] was “irreversibly; also recorded: irreversible”, the “ESI dissociation constant (Ki'), tyrosinase” value [3] was 0.8 mM and the Ki [3] was 70 µM.

With `COCC1=C(C(=O)OC(C)OC(=O)OC(C)C)N2C(=O)[C@@H](NC(=O)/C(=N\OC)c3csc(N)n3)[C@H]2SC1` (stereo partly shown) [Cefpodoxime proxetil] the IC50 [1] was 100 ± 14 µM.

For `CC(C)(O/N=C(\C(=O)N[C@@H]1C(=O)N2C(C(=O)[O-])=C(C[n+]3ccccc3)CS[C@H]12)c1csc(N)n1)C(=O)O` [Ceftazidime], the IC50 [1] was 91 ± 7 µM.

For `CO/N=C(\C(=O)N[C@@H]1C(=O)N2C(C(=O)O)=C(CSc3nc(=O)c(=O)[nH]n3C)CS[C@H]12)c1csc(N)n1` [Ceftriaxone sodium], the Ki [2] was 700 µM, the “Mode of urease inhibition” value [2] was “competitive” and the “Reversible or irreversible urease inhibition” value [2] was “irreversibly”. The “ESI dissociation constant (Ki'), urease” value [2] was 6 mM, the IC50 [1] was 80 ± 4 µM and the “Mode of tyrosinase inhibition” value [3] was “mixed-type, preferentially competitive”. For the same molecule, the “Reversible or irreversible tyrosinase inhibition” value [3] was “irreversibly; also recorded: irreversible”, the “ESI dissociation constant (Ki'), tyrosinase” value [3] was 0.6 mM and the Ki [3] was 100 µM.

In the case of `CO/N=C(\C(=O)N[C@@H]1C(=O)N2C(C(=O)O)=C(COC(N)=O)CS[C@H]12)c1ccco1` [Cefuroxime], the IC50 [1] is reported as 180 ± 9 µM.

With `CC1=C(C(=O)O)N2C(=O)[C@@H](NC(=O)[C@H](N)c3ccccc3)[C@H]2SC1` [Cephalexin] the IC50 [1] was 370 ± 46 µM.

`CC1=C(C(=O)O)N2C(=O)[C@@H](NC(=O)[C@H](N)C3=CCC=CC3)[C@H]2SC1` [Cephradine] was tested, and the IC50 [1] was 120 ± 9 µM.

Molecule `NC(N)=S` [Thiourea] has an IC50 ([1]; jack bean urease 5 U/ml, 100 mM urea, pH 8.2, OD625 nm, read-out: Jack bean urease inhibition IC50 ± SEM) of 19 ± 2 µM.
